Here are results for one compound from US20260207551A1, “PHOSPHOGLICERATE DEHYDROGENASE INHIBITORS FOR THE TREATMENT OF FIBROSIS” (CHIESI FARMACEUTICI S.P.A., priority 2022, published 2026).

Structures are written as SMILES.

The subject of one assay is Collagen I. As to the kind of experiment: Fibroblast to myofibroblast transition (FMT) in vitro assay: Collagen I detection. The class given is cell-based. The following applies: Homo sapiens, NHLF, 72 h, read-out: Collagen-I pIC50 (converted).
The next assay relates to αSMA. As to the kind of experiment: Phenotypic assay: high content aSMA staining in NHLF cells. The class given is cell-based, Human. The following applies: NHLF, 72 h incubation. As for the experimental part: NHLF cells (Lonza #CC2512) were seeded as 2000 cells/well in 384-well plates in MEM medium w/o serine and glycine (Sigma #M2279)+1% pen/strep+5 mM L-glutamine +10% FBS and incubated overnight at 37° C., 5% CO2.
The next day, cells were washed with PBS and starvation MEM medium w/o serine and glycine (0% FBS) was added and cells were incubated overnight at 37° C., 5% CO2. The day after, cells were pre-incubated with compounds or vehicle (0.3% DMSO) for 1 h. Compounds were tested at 9 consecutive 3-fold dilutions starting from 30 μM. Each compound was tested in duplicate. Cells were further incubated for 72 h at 37° C., 5% CO2, 95% humidity. After 72 h of incubation, αSMA expression was quantified using immunostaining: • Fixation in 4% paraformaldehyde, • Blocking with 3% BSA, 2% FBS, 0.2% Triton-X in PBS, • Primary ab. anti-αSMA (AbCam #ab7817) diluted 500× in blocking buffer • Anti-mouse secondary ab. AF488 (ThermoFisher #A11029) • % of αSMA positive cells was determined by High Content Imaging (Molecular Device), data analysis was performed using MetaXpress software (Molecular Devices) and % of αSMA positive was further used to calculate % of inhibition for tested compounds. Total cell number was determined by Hoechst staining and % of viability over TGFβ stimulated controls was calculated.

The test system of the next assay is synthesis of 13C3-serine. As to the kind of experiment: PK/PD model: in vivo [13C6] glucose tracing, inhibition of 13C3-serine synthesis. Set-up: species or system mouse male (C57BL/6J). The note with it: 1 h; for decrease of brain serine concentration: not statistically significant. As for the experimental part:
As PHGDH catalyzes the rate-limiting step of glucose-derived serine synthesis, a pharmacokinetic/pharmacodynamic (PK/PD) experiment aimed to assess the inhibition of the synthesis of ^13C3-serine after oral administration of ^13C6-glucose was performed in mouse male (C57BL/6J).
Animals were fasted overnight before treatment. Following 0.5 h from administration of either Compound 19 at dose of 300 mg/kg or vehicle (0.5% Tween 80, 0.5% Methylcellulose in H2O), ^13C6-glucose was administered by oral gavage (2 g/kg, Merck Life Science Srl). Blood, lung, and brain samples were collected at 1 h, 6.5 h and 24.5 h after treatment with Compound 19 or vehicle.
The tissue concentration of ^13C3-serine was determined by a liquid chromatography-tandem mass spectrometry (LC/MS/MS) assay. GraphPad Prism (version 8.1.2) was used for drawing graphs and for statistical analysis. Plasma or tissue homogenate samples (tissues were homogenized with a water/acetonitrile 50/50 mixture) were extracted with 3 volumes of acetonitrile. Supernanatant was injected into HPLC system (Agilent 1260 Quaternary Pump equipped with an Agilent 1200 High Performance Autosampler SL; Agilent), using a Kinetex EVO C18 analytical column (100 A, 50×2.1 mm, 2.6 μm; Phenomenex) for the analysis of Compound 19 or an InfinityLab Poroshell 120 Hilic-Z (50×2.1 mm 2.7 μm; Agilent) for the analysis of ^13C3-serine. The mobile phases consisted of 0.1% formic acid in water (solvent A) and 0.1% formic acid in acetonitrile (solvent B); chromatographic separation was performed with gradient elution method (see conditions below): • Compound 19 (0.0-0.5 min, 10% B; 0.5-3.0 min, gradient to 90% B; 3.0-5.0 min. 90% B; 5.0-6.0 min, gradient to 10% B; 6.0-10.0 min, 10% B—flow rate: 0.4 mL/min). • S^13C3-serine (0.0-0.5 min, 95% B; 0.5-4.0 min, gradient to 60% B; 4.0-5.0 min, 60% B; 5.0-6.0 min, gradient to 95% B; 6.0-10.0 min, 95% B—flow rate: 0.4 mL/min).
Mass spectrometric analysis was performed on a linear ion trap triple quadrupole mass spectrometer (4000 Q TRAP; AB SCIEX) equipped with a turbo spray ion source; mass spectrometer was operated in positive ion mode and quantification was achieved by multiple reaction monitoring (MRM) mode. Peak integration was performed using Analyst (version 1.6.2.). GraphPad Prism (version 8.1.2) was used for drawing graphs and for statistical analysis.
After 0.5 h from administration of Compound 19a at dose of 3, 10, 30, 100 and 300 mg/kg po, Compound 19 at dose of 300 mg/kg po or vehicle po (0.5% Tween 80, 0.5% Methylcellulose in H2O), mice received ^13C6-glucose by oral gavage (2 g/kg, Merck Life Science Srl). […] Blood was withdrawn by cardiac puncture and collected in heparin tubes.

In assay [1] the test system is bleomycin-induced pulmonary fibrosis. As to the kind of experiment: Bleomycin-induced pulmonary fibrosis in male mice (Example 6). It is filed as in vivo, Male C57BL6/J mice. The procedure:
The effect of Compound 19a was evaluated in a murine model (C57BL/6J mouse strain) in which fibrosis was induced by a double oropharyngeal (OA) instillation of bleomycin. The Compound 19a was administered under therapeutic regimen for 14 days, starting the treatments at day 7 from the first instillation of Bleomycin OA up to the day 21, considered the endpoint for this model.
All mice were maintained under pathogen-free conditions and had free access to food and water.
Lung injury was induced by double OA instillation of bleomycin hydrochloride (BLM, BAXTER, Deerfield, IL, USA) at day 0 and day 4 at the dose of 0.03 U/mouse in […] of saline solution (NaCl 0.9%). Control animals received double OA instillation of […] of saline solution.
The Compound 19a was orally administered twice daily at the three doses of 3, 30 and 100 mg/Kg 10 mL/Kg, using as vehicle for dissolution the 0.5% Tween 80, 0.5% Methylcellulose in H2O.
On day 21, the respiratory system mechanics were measured using the FlexiVent System (SCIREQ Inc., Montreal Qc, Canada) (Vanoirbeek et al., 2010).
Briefly, mice were anesthetized by intraperitoneal injection of ketamine (Anesketin®, Dechra Inc., Handelsweg, NL) and xylazine (Xilagesic®, Calier Inc., Barcelona, ES) solution (100 mg/Kg and 10 mg/Kg, respectively). Once anesthesia was achieved, to analyze forced vital capacity (FVC), anesthetized mice were tracheotomized using an 18-gauge metal cannula, connected via an endotracheal cannula to the FlexiVent and ventilated at a respiratory rate of 150 breaths/min and tidal volume of 10 mL/Kg against a positive end-expiratory pressure of 3 cm H2O to achieve a mean lung volume close to that during spontaneous breathing. To prevent spontaneous breathing mice also received pancuronium bromide at 1 mg/Kg intraperitoneally. FlexiVent software version 8.1 was used to perform the perturbations.
Immediately after the in-life evaluation, plasma and bronchoalveolar lavage fluid (BALF) samples were collected.
First, blood was collected by cardiac puncture, and plasma was obtained after centrifugation of blood at 2000×g and 4° C. for 10 minutes.
Subsequently, the lungs were gently rinsed three times using a tracheal cannula with 0.6 mL of clear BAL solution. The obtained BALF was centrifuged at 1000×g and 4° C. for 10 minutes. The cell-free supernatant was used for biomarkers quantitative determination.
The following biomarkers were determined in BALF and plasma samples by commercially available ELISA kits: Collagen I (evaluated in BALF), an index of collagen accumulation; matrix metallopeptidase 7 (MMP-7, evaluated in BALF), indicator of aberrant fibrogenesis and ECM remodeling and surfactant protein D (SP-D, evaluated in PLASMA), marker of alveolar epithelial cell damage and dysfunction.
Lastly, the entire lungs were resected, fixed with formalin and embedded in paraffin. Sections were stained with Masson's trichrome to assess the grade and severity of fibrosis and collagen deposition.

Setting [2] is: Compound 19a 100 mg/Kg bid, Nintedanib esylate 50 mg/Kg bid.

As for `CC(C)C(C(=O)O)c1ccc(C2(NC(=O)c3cc4c(Cl)c(Cl)ccc4n3C)CCOC2)cc1` (racemic) [Compound 19a, Diasteroisomer 2 of (±)-2-(4-(3-(4,5-Dichloro-1-methyl-1H-indole-2-carboxamido)tetrahydro-furan-3-yl)phenyl)-3-methylbutanoic acid], the IC50 in the assay with Collagen I is 126 nM. Also, the “aSMA pIC50” value in the assay on αSMA came out at 6.6. For the same compound, in the assay with synthesis of 13C3-serine (100 mg/kg po), the “decrease of brain serine concentration” value was found to be 12%. Also, the “decrease of brain serine concentration” value in the assay on synthesis of 13C3-serine (300 mg/kg po) stood at 30%. Moreover, the “ED80 (inhibition of labelled serine)” value in the assay with synthesis of 13C3-serine (plasma and lung, both tissues, po, estimated) was “around 30 mg/kg”. Besides, in assay [1] (100 mg/Kg), the “fibrotic tissue quantification by automated analysis (FIG. 19B)” value is recorded as “effect comparable to Nintedanib”. Also, in assay [1] (setting [2]), the “reduction of Collagen I in BALF” value was determined as 52%, the “reduction of MMP-7 in BALF” value was above 100% and the “reduction of SP-D levels in plasma” value was 74%. Also, the “improvement of FVC decline” value in assay [1] (Compound 19a 100 mg/kg bid, Nintedanib esylate 50 mg/Kg bid, vs BLM/vehicle) was found to be 77%. Besides, in assay [1] (day 21, dose not stated), the “reduction of Ashcroft score” value is 56%.
